In PMC6895048, “4,5-Disubstituted 1,2,3-triazoles: Effective Inhibition of Indoleamine 2,3-Dioxygenase 1 Enzyme Regulates T cell Activity and Mitigates Tumor Growth” (Scientific Reports, 2019):

How the values were obtained:
[1] = target: T1, purified human TDO enzyme (Homo sapiens, UniProt P48775); test: TDO inhibition assay by the spectrometric method; format: biochemical; details: for inhibitory efficacies against TDO enzyme: both spectrophotometric and kynurenine assay
T1 construct: 6xHis (N); made in house; host or cells: Escherichia coli BL21 (DE3) (pET 28a vector)
Experimental: Both IDO1 and TDO inhibition assays were performed according to the reported procedures[26]–[30],[50],[51]. The solubility of the compounds in water was either moderate or poor. […] In the assay system, the minimum and maximum amount of DMSO was 0.02% and 2%, respectively. The standard reaction mixture (500 μL) containing KPB (100 mM, pH 6.5 for IDO1 enzyme and 50 mM, pH 8.0 for TDO enzyme), sodium ascorbate (20 mM), methylene blue (10 µM), catalase (240 nM, from bovine liver), L-Trp (150 µM), purified enzyme (40 nM for IDO1 and 25 nM for TDO), DMSO (0.05%, v/v), Triton-X 100 (0.01%, v/v) and inhibitors was incubated at 37 °C for 1 hour. The concentration of the inhibitors was varied from 100 µM to 32 nM by serial dilution technique. Then, the reaction was quenched with 100 µL of 30% (w/v) trichloroacetic acid and was incubated for further 15 minutes at 65 °C. After that, 2% (w/v) pDMAB was used to quantify the amount of kynurenine formation. The absorbance of the reaction mixture was recorded by UV-Vis spectrophotometer at 480 nm. The Km = 59.76 µM and Kcat = 6.18 sec^−1.

IDO1 [2] = target: T2, IDO1 (Homo sapiens, UniProt P14902); test: Equilibrium surface plasmon resonance (SPR) analysis; format: binding; set-up: made in house; host or cells: Escherichia coli M15 (pQE30 vector with pREP4 plasmid); details: PBS buffer pH 7.4, triplicate
Experimental: The surface plasmon resonance (SPR) analysis was carried out according to the reported procedure with minor modifications[34],[52]. In brief, the measurements were performed at 25 °C on the Biacore-X100 instrument using CM5 sensor chip (GE Healthcare). PBS buffer at pH 7.4 was used as running buffer. The surface of the CM5 sensor chip was first modified with Anti-His Antibody using amine-coupling kit at a flow rate of 30 µL/ minute, followed by IDO1 enzyme (30 µg/mL) immobilization using His-capture kit at a flow rate of 10 µL/minute for 2 minutes. The IDO1 enzyme capture level was 4000 response units (RU). The binding efficacy (association constant; ka) of the compounds was determined by measuring the change in RU of the SPR sensorgram in absence or presence of the compounds (0 to 50 µM).
Figure S1. Measurements of compound binding affinity of the human IDO1 enzyme by […]
equilibrium SPR analysis.
(D), respectively injected over the biosensor chip surface-immobilized with IDO-1 protein are indicated. PBS buffer at pH 7.4 was used for all measurements. Binding isotherm was generated from the Req (average of triplicate measurements) versus the concentration of […] plot. Kd values determined by nonlinear least-squares analysis of the isotherm using the following equation: Req = Rmax/(1 + Kd/P).
Table S3. IDO1 binding affinity of various compounds determined from equilibrium SPR […]
(1 picture or pasted object on this page, not shown here)

[3] = target: T3, IDO1 enzyme (ferric and deoxy-ferrous) (Homo sapiens, UniProt P14902); test: Binding analysis by UV-Vis spectroscopic measurement; details: for Soret band red-shift: both ferric-IDO1 and deoxy-ferrous-IDO1; for Q-band shift: deoxy-ferrous-IDO1, Q-band at 551 nm for only enzyme
T3 construct: made in house; host or cells: Escherichia coli M15 (pQE30 vector with pREP4 plasmid)
Experimental: Figure 4 Binding properties of the potent compounds. Absorption spectra of ferric-IDO1 (A) and deoxy-ferrous-IDO1 enzyme (B) in the absence and presence of the compounds (20 μM) in 100 mM phosphate buffer at pH 6.5. [IDO1] = 0.65 μM. The ferrous-deoxy reaction environment was generated by adding Na2S2O4 to the solution under N2 atmosphere. The binding isotherms were generated from the response unit (RU) at 60 sec (average of triplicate measurements) versus the concentration of the compounds. A solid line represents a theoretical curve constructed from Rmax and Kd values determined by nonlinear least-squares analysis of the isotherms (C). 20 mm HEPES buffer, pH 7.4, with 0.16 m KCl was used for all SPR measurements. […] The model structures were generated using MoleGro Virtual Docker, version 6.0. The oxygen and nitrogen atoms are shown in red and blue, respectively. Residues involved in interactions through hydrogen bond formation are shown using dashed lines (yellow). Images were generated using PyMol.
The efficacy of the compound’s direct binding to the enzyme active site was measured by UV-Vis spectroscopic analysis[26]–[28],[30]. All the measurements were performed at room temperature using 100 mM KPB (pH 6.5), purified hIDO1 enzyme (3 µM), and selected compounds (20 µM. The deoxy-reaction system was generated by injecting Na2S2O4 (~10-fold excess) into the solution pre-purged with N2 gas.

IDO1 [4] = target: T2, IDO1; test: Circular dichroism analysis of IDO1 enzyme; set-up: made in house; host or cells: Escherichia coli M15 (pQE30 vector with pREP4 plasmid)
Experimental: The Circular Dichroism (CD) spectra of the IDO1 enzyme in the absence or presence of compounds were recorded with a Jasco-810-spectropolarimeter according to the reported procedure[37],[38]. Samples of rIDO1 (2 μM) were prepared in 10 mM KPB buffer (pH 6.5) in a […] quartz cuvette. Spectra were recorded by varying the concentration of the compound (250 nM to 4 µM) using a 1 mL quartz cuvette of 1 cm path length with a Jasco J-1500 spectropolarimeter at 17 °C. Also the spectra were collected at a scan rate […] and 1 nm bandwidth from 200 nm to 260 nm with three times scan for averaging. All final spectra were corrected for buffer background CD signals. The % of the secondary structures of the IDO1 enzyme was analyzed using the inbuilt software of the instrument.

T1 sequence (P48775 whole entry): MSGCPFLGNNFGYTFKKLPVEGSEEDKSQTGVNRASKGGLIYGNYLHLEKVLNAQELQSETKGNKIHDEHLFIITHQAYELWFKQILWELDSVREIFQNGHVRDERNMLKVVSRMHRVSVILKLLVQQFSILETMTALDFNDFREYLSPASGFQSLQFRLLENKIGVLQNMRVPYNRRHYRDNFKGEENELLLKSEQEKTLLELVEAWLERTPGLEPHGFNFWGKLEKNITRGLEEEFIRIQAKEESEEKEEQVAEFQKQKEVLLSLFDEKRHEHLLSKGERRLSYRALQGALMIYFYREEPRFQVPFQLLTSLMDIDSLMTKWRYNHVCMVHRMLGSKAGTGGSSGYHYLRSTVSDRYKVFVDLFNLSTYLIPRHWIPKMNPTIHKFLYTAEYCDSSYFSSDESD
T2 sequence (P14902 whole entry): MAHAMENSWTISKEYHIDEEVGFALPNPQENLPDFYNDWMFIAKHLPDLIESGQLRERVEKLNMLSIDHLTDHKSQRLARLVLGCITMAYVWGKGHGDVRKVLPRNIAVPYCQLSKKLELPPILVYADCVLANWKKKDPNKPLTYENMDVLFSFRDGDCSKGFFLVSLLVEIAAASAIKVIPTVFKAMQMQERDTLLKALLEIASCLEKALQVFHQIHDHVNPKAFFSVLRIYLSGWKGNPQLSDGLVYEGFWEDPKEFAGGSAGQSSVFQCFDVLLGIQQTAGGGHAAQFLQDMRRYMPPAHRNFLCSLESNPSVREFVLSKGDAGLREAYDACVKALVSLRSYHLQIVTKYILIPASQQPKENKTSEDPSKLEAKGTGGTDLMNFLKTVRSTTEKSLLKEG
T3 sequence (P14902 whole entry): as above

| Structure (SMILES) | inhibitory efficacies against TDO enzyme [1] | Kd (IDO1 [2]) [µM] | Soret band red-shift [3] | Q-band shift [3] | % of Secondary structural elements, Beta (IDO1 [4]; compound 0.25 µM) [%] | % of Secondary structural elements, Helix (IDO1 [4]; compound 0.25 µM) [%] | % of Secondary structural elements, Random (IDO1 [4]; compound 0.25 µM) [%] | % of Secondary structural elements, Turn (IDO1 [4]; compound 0.25 µM) [%] | % of Secondary structural elements, Beta (IDO1 [4]; compound 0.5 µM) [%] | % of Secondary structural elements, Helix (IDO1 [4]; compound 0.5 µM) [%] | % of Secondary structural elements, Random (IDO1 [4]; compound 0.5 µM) [%] | % of Secondary structural elements, Turn (IDO1 [4]; compound 0.5 µM) [%] | % of Secondary structural elements, Beta (IDO1 [4]; compound 1 µM) [%] | % of Secondary structural elements, Helix (IDO1 [4]; compound 1 µM) [%] | % of Secondary structural elements, Random (IDO1 [4]; compound 1 µM) [%] | % of Secondary structural elements, Turn (IDO1 [4]; compound 1 µM) [%] | % of Secondary structural elements, Beta (IDO1 [4]; compound 2 µM) [%] | % of Secondary structural elements, Helix (IDO1 [4]; compound 2 µM) [%] | % of Secondary structural elements, Random (IDO1 [4]; compound 2 µM) [%] | % of Secondary structural elements, Turn (IDO1 [4]; compound 2 µM) [%] | further results |
| --- | --- | --- | --- | --- | --- | --- | --- | --- | --- | --- | --- | --- | --- | --- | --- | --- | --- | --- | --- | --- | --- |
| O=C(N/C(Cc1ccc(O)cc1)=N\O)c1n[nH]nc1-c1ccc(F)c(F)c1 [Compound 4i] | moderate to poor | 40.2 ± 4.99 | 5–8 nm | 10–13 nm | 0.7 | 27.8 | 37.6 | 33.9 | 0 | 28 | 38.1 | 33.9 | 0 | 27.6 | 40.6 | 31.8 | 0 | 29.8 | 42.6 | 27.6 | % of Enzyme inhibition (TDO) ([1]; spectrophotometric, 32 nM): 4%; % of Enzyme inhibition (TDO) ([1]; spectrophotometric, 160 nM): 7%; % of Enzyme inhibition (TDO) ([1]; spectrophotometric, 800 nM): 14%; % of Enzyme inhibition (TDO) ([1]; spectrophotometric, 4 µM): 24%; % of Enzyme inhibition (TDO) ([1]; spectrophotometric, 20 µM): 42%; % of Enzyme inhibition (TDO) ([1]; spectrophotometric, 100 µM): 55%; % of Secondary structural elements, Beta (IDO1 [4]; compound 4 µM): 0%; % of Secondary structural elements, Helix (IDO1 [4]; compound 4 µM): 31.8%; % of Secondary structural elements, Random (IDO1 [4]; compound 4 µM): 38.8%; % of Secondary structural elements, Turn (IDO1 [4]; compound 4 µM): 29.4% |
| NS(=O)(=O)NCCNC(=O)c1n[nH]nc1-c1ccc(F)c(F)c1 [Compound 4k] | moderate to poor | 49.1 ± 8.51 | 5–8 nm | 10–13 nm | 3.6 | 26.8 | 34.3 | 35.3 | 0 | 30.6 | 31.2 | 38.2 | 0 | 28 | 33.9 | 38.1 | 0 | 23.8 | 46.0 | 30.2 | inhibition at 0.032 µM ([1]; spectrophotometric, 32 nM): 3%; inhibition at 0.16 µM ([1]; spectrophotometric, 160 nM): 6%; inhibition at 0.8 µM ([1]; spectrophotometric, 800 nM): 16%; inhibition at 4 µM ([1]; spectrophotometric, 4 µM): 32%; inhibition at 20 µM ([1]; spectrophotometric, 20 µM): 45%; inhibition at 100 µM ([1]; spectrophotometric, 100 µM): 50%; % of Secondary structural elements, Beta (IDO1 [4]; compound 4 µM): 0%; % of Secondary structural elements, Helix (IDO1 [4]; compound 4 µM): 29.1%; % of Secondary structural elements, Random (IDO1 [4]; compound 4 µM): 36.4%; % of Secondary structural elements, Turn (IDO1 [4]; compound 4 µM): 34.5% |
| NC(=O)c1n[nH]nc1-c1ccc(F)c(F)c1 [Compound 3i] | moderate to poor | 34.5 ± 5.21 | 5–8 nm | 10–13 nm | 0 | 30.1 | 35.8 | 34.1 | 0 | 29.4 | 36.8 | 33.8 | 0 | 29.8 | 35.8 | 34.5 | 0 | 28.5 | 40.8 | 30.7 | % of Enzyme inhibition (TDO) ([1]; spectrophotometric, 32 nM): 5%; % of Enzyme inhibition (TDO) ([1]; spectrophotometric, 160 nM): 11%; % of Enzyme inhibition (TDO) ([1]; spectrophotometric, 800 nM): 14%; % of Enzyme inhibition (TDO) ([1]; spectrophotometric, 4 µM): 26%; % of Enzyme inhibition (TDO) ([1]; spectrophotometric, 20 µM): 33%; % of Enzyme inhibition (TDO) ([1]; spectrophotometric, 100 µM): 49%; % of Secondary structural elements, Beta (IDO1 [4]; compound 4 µM): 0%; % of Secondary structural elements, Helix (IDO1 [4]; compound 4 µM): 30.7%; % of Secondary structural elements, Random (IDO1 [4]; compound 4 µM): 60.4%; % of Secondary structural elements, Turn (IDO1 [4]; compound 4 µM): 8.9% |
| CCOC(=O)c1n[nH]nc1-c1ccc(F)c(F)c1 [Compound 2i] | moderate to poor | 61.7 ± 6.07 | 5–8 nm | 10–13 nm | 0 | 28 | 37.9 | 34.1 | 0 | 28.7 | 36.1 | 35.2 | 0 | 30.2 | 33.5 | 36.3 | 0 | 30.5 | 33.8 | 35.7 | % of Enzyme inhibition (TDO) ([1]; spectrophotometric, 32 nM): 2%; % of Enzyme inhibition (TDO) ([1]; spectrophotometric, 160 nM): 9%; % of Enzyme inhibition (TDO) ([1]; spectrophotometric, 800 nM): 12%; % of Enzyme inhibition (TDO) ([1]; spectrophotometric, 4 µM): 15%; % of Enzyme inhibition (TDO) ([1]; spectrophotometric, 20 µM): 23%; % of Enzyme inhibition (TDO) ([1]; spectrophotometric, 100 µM): 28%; % of Secondary structural elements, Beta (IDO1 [4]; compound 4 µM): 0%; % of Secondary structural elements, Helix (IDO1 [4]; compound 4 µM): 30.5%; % of Secondary structural elements, Random (IDO1 [4]; compound 4 µM): 35.7%; % of Secondary structural elements, Turn (IDO1 [4]; compound 4 µM): 33.8% |
